Measurements: patent publication US9302999B2, “Substituted triazoles as herbicides” (E. I. DU PONT DE NEMOURS AND COMPANY, priority 2012, dated 2016)

Key:
Assay type in all cases: in vivo
corn (Zea mays) [1] = assay: Test A pre-/postemergence: corn; conditions: Zea mays, 240 h; for plant injury at 125 g/ha / plant injury at 500 g/ha: post-emergence, Postemergence, read-out: Corn plant response rating; for plant injury at 125 g/ha / Corn plant response rating (crop injury, 0 = no effect, 100 = complete kill) at 125 g/ha: 125 g ai/ha; for plant injury at 500 g/ha / Corn plant response rating (crop injury, 0 = no effect, 100 = complete kill) at 500 g/ha: 500 g ai/ha; for plant injury at 500 g/ha: visual rating on 0 to 100 scale (0 no effect, 100 complete control), approximately ten days; for Corn plant response rating (crop injury, 0 = no effect, 100 = complete kill) at 125 g/ha / Corn plant response rating (crop injury, 0 = no effect, 100 = complete kill) at 500 g/ha: pre-emergence, Preemergence
Method in brief: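 Injury was scored visually on a 0 (no effect) to 100 (complete control) scale versus untreated controls roughly ten days after treatment in the greenhouse. Compounds, formulated in surfactant-containing non-phytotoxic solvent, went on as soil-directed preemergence spray or postemergence to one- to two-leaf plants 2–10 cm tall.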

[2] = tested on: foxtail, giant (giant foxtail, Setaria faberii); assay: Test C pre-/postemergence: foxtail, giant
Text: (§1) Seeds of plant species selected from blackgrass (Alopecurus myosuroides), bromegrass, downy (downy bromegrass, Bromus tectorum), foxtail, green (green foxtail, Setaria viridis), ryegrass, Italian (Italian ryegrass, Lolium multiflorum), winter wheat (Triticum aestivum), wild oat (Avena fatua), galium (catchweed bedstraw, Galium aparine), bermudagrass (Cynodon dactylon), surinam grass (Brachiaria decumbens), cocklebur (common cocklebur, Xanthium strumarium), corn (Zea mays), large crabgrass (Digitaria sanguinalis), woolly cupgrass (Eriochloa villosa), foxtail, giant (giant foxtail, Setaria faberii), goosegrass (Eleusine indica), johnsongrass (Sorghum halepense), kochia (Kochia scoparia), lambsquarters (Chenopodium album), morningglory (Ipomoea coccinea), nightshade (eastern black nightshade, Solanum ptycanthum), nutsedge, yellow (yellow nutsedge, Cyperus esculentus), pigweed (Amaranthus retroflexus), ragweed (common ragweed, Ambrosia elation), soybean (Glycine max), common (oilseed) sunflower (Helianthus annuus), Russian thistle (Salsola kali) and velvetleaf (Abutilon theophrasti) were planted into a blend of loam soil and sand and treated preemergence with test chemicals formulated in a non-phytotoxic solvent mixture which included a surfactant.
(§2) At the same time, plants selected from these crop and weed species and also barley (winter barley, Hordeum vulgare), canarygrass (Phalaris minor), chickweed (common chickweed, Stellaria media) windgrass (Apera spica-venti) and deadnettle (henbit deadnettle, Lamium amplexicaule) were planted in pots containing Redi-Earth® planting medium (Scotts Company, 14111 Scottslawn Road, Marysville, Ohio 43041) comprising spaghnum peat moss, vermiculite, wetting agent and starter nutrients and treated with postemergence applications of test chemicals formulated in the same manner. Plants ranged in height from 2 to 18 cm (1- to 4-leaf stage) for postemergence treatments.
(§3) Treated plants and controls were maintained in a greenhouse for 13 to 15 days, after which time all species were compared to controls and visually evaluated. Plant response ratings, summarized in Table C, are based on a scale of 0 to 100 where 0 is no effect and 100 is complete control. A dash (-) response means no test result.

[3] = tested on: ragweed (common ragweed, Ambrosia elation); assay: Test C pre-/postemergence: ragweed; conditions: Postemergence
Text: as §1, §2, §3

[4] = tested on: velvetleaf (Abutilon theophrasti); assay: Test C pre-/postemergence: velvetleaf
Text: as §1, §2, §3

[5] = tested on: large crabgrass (Digitaria sanguinalis); assay: Test C pre-/postemergence: large crabgrass
Text: as §1, §2, §3

corn (Zea mays) [6] = assay: Test C pre-/postemergence: corn
Text: as §1, §2, §3

wild oat (Avena fatua) = assay: Test C pre-/postemergence: wild oat
Text: as §1, §2, §3

[7] = tested on: chickweed (common chickweed, Stellaria media); assay: Test C postemergence: chickweed
Text: as §2, §3

kochia (Kochia scoparia) = assay: Test C pre-/postemergence: kochia
Text: as §1, §2, §3

[8] = tested on: nutsedge, yellow (yellow nutsedge, Cyperus esculentus); assay: Test C pre-/postemergence: nutsedge, yellow
Text: as §1, §2, §3

[9] = 0 to 100 scale, 0 is no effect, 100 is complete control
[10] = 0 to 100 scale where 0 is no effect and 100 is complete control
[11] = 0 to 100 scale (0 no effect, 100 complete control)
[12] = Postemergence, 16 g ai/ha, scale 0 to 100, 0 no effect, 100 complete control
[13] = Postemergence, 31 g ai/ha, scale 0 to 100 (0 no effect, 100 complete control)
[14] = Postemergence, 62 g ai/ha, scale 0 to 100 (0 no effect, 100 complete control)
[15] = Postemergence, 125 g ai/ha, scale 0 to 100, 0 no effect, 100 complete control
[16] = Preemergence, 16 g ai/ha, scale 0 (no effect) to 100 (complete control)
[17] = Preemergence, 31 g ai/ha, scale of 0 to 100, 0 is no effect, 100 is complete control
[18] = Preemergence, 62 g ai/ha, scale of 0 to 100, 0 is no effect, 100 is complete control
[19] = Preemergence, 125 g ai/ha, scale 0 to 100, 0 no effect, 100 complete control
[20] = 16 g ai/ha, scale 0 to 100, 0 no effect, 100 complete control
[21] = 31 g ai/ha, scale 0 to 100 (0 no effect, 100 complete control)
[22] = 62 g ai/ha, scale 0 to 100 (0 no effect, 100 complete control)
[23] = 125 g ai/ha, scale 0 to 100, 0 no effect, 100 complete control

## COCc1nn(-c2ccc(C(F)(F)F)cc2)nc1Oc1cccc(OC(F)(F)F)c1 [Compound 115, 4-(methoxymethyl)-5-[3-(trifluoromethoxy)phenoxy]-2-[4-(trifluoromethyl)phenyl]-2H-1,2,3-triazole]
Corn (Zea mays) [1]; [9]
  plant injury at 125 g/ha: 10%
Corn (Zea mays) [1]
  plant injury at 500 g/ha: 30%
Corn (Zea mays) [1]; [10]
  Corn plant response rating (crop injury, 0 = no effect, 100 = complete kill) at 125 g/ha: 0%
Corn (Zea mays) [1]; [11]
  Corn plant response rating (crop injury, 0 = no effect, 100 = complete kill) at 500 g/ha: 10%

## COc1nn(-c2ccc(C(F)(F)F)cc2)nc1Cc1ccnc(C(F)(F)F)c1 [Compound 15, 4-[[5-methoxy-2-[4-(trifluoromethyl)phenyl]-2H-1,2,3-triazol-4-yl]methyl]-2-(trifluoromethyl)pyridine]
[2]; [12]
  Plant response rating, Foxtail, Giant: 5
[2]; [13]
  Plant response rating, Foxtail, Giant: 10
[2]; [14]
  Plant response rating, Foxtail, Giant: 10
[2]; [15]
  Plant response rating, Foxtail, Giant: 75
[2]; [16]
  Plant response rating, Foxtail, Giant: 95
[2]; [17]
  Plant response rating, Foxtail, Giant: 95
[2]; [18]
  Plant response rating, Foxtail, Giant: 100
[2]; [19]
  Plant response rating, Foxtail, Giant: 100
[3]; [20]
  Plant response rating, Ragweed: 45
[3]; [21]
  Plant response rating, Ragweed: 60
[3]; [22]
  Plant response rating, Ragweed: 60
[3]; [23]
  Plant response rating, Ragweed: 70
[4]; [12]
  Plant response rating, Velvetleaf: 60
[4]; [13]
  Plant response rating, Velvetleaf: 60
[4]; [14]
  Plant response rating, Velvetleaf: 60
[4]; [15]
  Plant response rating, Velvetleaf: 90
[4]; [16]
  Plant response rating, Velvetleaf: 0
[4]; [17]
  Plant response rating, Velvetleaf: 0
[4]; [18]
  Plant response rating, Velvetleaf: 20
[4]; [19]
  Plant response rating, Velvetleaf: 80
[5]; [12]
  Plant response rating, Crabgrass, Large: 5
[5]; [13]
  Plant response rating, Crabgrass, Large: 15
[5]; [14]
  Plant response rating, Crabgrass, Large: 45
[5]; [15]
  Plant response rating, Crabgrass, Large: 60
[5]; [16]
  Plant response rating, Crabgrass, Large: 98
[5]; [17]
  Plant response rating, Crabgrass, Large: 100
[5]; [18]
  Plant response rating, Crabgrass, Large: 100
[5]; [19]
  Plant response rating, Crabgrass, Large: 100
Corn (Zea mays) [6]; [12]
  Plant response rating, Corn: 0
Corn (Zea mays) [6]; [13]
  Plant response rating, Corn: 5
Corn (Zea mays) [6]; [14]
  Plant response rating, Corn: 15
Corn (Zea mays) [6]; [15]
  Plant response rating, Corn: 35
Corn (Zea mays) [6]; [16]
  Plant response rating, Corn: 0
Corn (Zea mays) [6]; [17]
  Plant response rating, Corn: 0
Corn (Zea mays) [6]; Preemergence, 62 g ai/ha, scale 0 to 100, 0 no effect, 100 complete control
  Plant response rating, Corn: 0
Corn (Zea mays) [6]; [19]
  Plant response rating, Corn: 10
Wild oat (Avena fatua); [12]
  Plant response rating, Oat, Wild: 40
Wild oat (Avena fatua); [13]
  Plant response rating, Oat, Wild: 45
Wild oat (Avena fatua); [14]
  Plant response rating, Oat, Wild: 55
Wild oat (Avena fatua); [15]
  Plant response rating, Oat, Wild: 60
Wild oat (Avena fatua); [16]
  Plant response rating, Oat, Wild: 35
Wild oat (Avena fatua); [17]
  Plant response rating, Oat, Wild: 40
Wild oat (Avena fatua); [18]
  Plant response rating, Oat, Wild: 70
Wild oat (Avena fatua); [19]
  Plant response rating, Oat, Wild: 70
[7]; [20]
  Plant response rating, Chickweed: 55
[7]; [21]
  Plant response rating, Chickweed: 55
[7]; [22]
  Plant response rating, Chickweed: 70
[7]; [23]
  Plant response rating, Chickweed: 75
Kochia (Kochia scoparia); [12]
  Plant response rating, Kochia: 90
Kochia (Kochia scoparia); [13]
  Plant response rating, Kochia: 95
Kochia (Kochia scoparia); [14]
  Plant response rating, Kochia: 95
Kochia (Kochia scoparia); [15]
  Plant response rating, Kochia: 95
Kochia (Kochia scoparia); [16]
  Plant response rating, Kochia: 0
Kochia (Kochia scoparia); [17]
  Plant response rating, Kochia: 70
Kochia (Kochia scoparia); [18]
  Plant response rating, Kochia: 70
Kochia (Kochia scoparia); [19]
  Plant response rating, Kochia: 85
Corn (Zea mays) [1]; [9]
  plant injury at 125 g/ha: 30%
  Corn plant response rating (crop injury, 0 = no effect, 100 = complete kill) at 500 g/ha: 50%
Corn (Zea mays) [1]
  plant injury at 500 g/ha: 50%
Corn (Zea mays) [1]; [11]
  Corn plant response rating (crop injury, 0 = no effect, 100 = complete kill) at 125 g/ha: 20%
[8]; [12]
  Plant response rating, Nutsedge, Yellow: 0
[8]; [13]
  Plant response rating, Nutsedge, Yellow: 0
[8]; [14]
  Plant response rating, Nutsedge, Yellow: 0
[8]; [15]
  Plant response rating, Nutsedge, Yellow: 0
[8]; [16]
  Plant response rating, Nutsedge, Yellow: 0
[8]; [17]
  Plant response rating, Nutsedge, Yellow: 0
[8]; [18]
  Plant response rating, Nutsedge, Yellow: 0
[8]; [19]
  Plant response rating, Nutsedge, Yellow: 10

## Cc1nn(-c2ccc(C(F)(F)F)cc2)nc1Oc1csc(C(F)(F)F)c1 [Compound 1, 4-methyl-2-[4-(trifluoromethyl)phenyl]-5-[[5-(trifluoromethyl)-3-thienyl]oxy]-2H-1,2,3-triazole]
Corn (Zea mays) [1]; [9]
  plant injury at 125 g/ha: 20%
  Corn plant response rating (crop injury, 0 = no effect, 100 = complete kill) at 500 g/ha: 0%
Corn (Zea mays) [1]
  plant injury at 500 g/ha: 20%
Corn (Zea mays) [1]; [11]
  Corn plant response rating (crop injury, 0 = no effect, 100 = complete kill) at 125 g/ha: 0%

## FCc1nn(-c2ccc(C(F)(F)F)cc2)nc1Oc1cccc(OC(F)(F)F)c1 [Compound 116, 4-(fluoromethyl)-5-[3-(trifluoromethoxy)phenoxy]-2-[4-(trifluoromethyl)phenyl]-2H-1,2,3-triazole]
Corn (Zea mays) [1]; [9]
  plant injury at 125 g/ha: 20%
Corn (Zea mays) [1]
  plant injury at 500 g/ha: 30%
Corn (Zea mays) [1]; [10]
  Corn plant response rating (crop injury, 0 = no effect, 100 = complete kill) at 125 g/ha: 0%
Corn (Zea mays) [1]; [11]
  Corn plant response rating (crop injury, 0 = no effect, 100 = complete kill) at 500 g/ha: 10%
